Data as given in patent publication US5744452A, “γ-L-glutamyl containing immunomodulator compounds and methods therewith” (Wei; Edward T., priority 1995, dated 1998).

What was measured:
[1] = tested on: patients with generalized surgical infection; test: Study in patients with generalized surgical infection; assay type: in vivo, human; conditions: for Adhesion (%) / Blast transformation PHA / Blast transformation spont / CD3 (%) / CD4 (%) / CD4/CD8 / CD8 (%) / CD16 (%) / CD72 (%) / Chemilumin luminol (induced) / Chemilumin luminol (spontaneous) / IL-1 production LPS induced / IL-1 production spontaneous / IgA / IgG / IgM / NBT test induced / NBT test spontaneous / TNF production spontaneous / TNF prpoduction LPS induced: surgical infection; for Alanine aminotransferase / Albumin / Asparagine aminotransferase / Band neutrophils (%) / Bilirubin / Creatinin / Hemoglobin / Mature neutrophils (%) / Monocytes (%) / Plasma protein / Urea: surgical patients
Description: (§1) Preliminary studies were conducted to characterize the immunomodulatory properties of Bestim in human subjects. The protocol for the human subjects studies were reviewed and approved by a Hospital Committee (Moscow Hospital N-24) and informed consent was obtained from all subjects. All 62 patients received by intramuscular injection 0.1 mg of Bestim dissolved in 1.5 to 2.0 ml of sterile saline, one injection per day for 5 days. Patients participating in the clinical trials were from 2 groups:
The second group consisted of 28 patients with generalized surgical infection. Bestim was given together with standard antibiotic therapy.
(§2) Laboratory measurements (data in Table 8 to 10) were performed one day before and compared to values obtained three days after injection of Bestim.

[2] = tested on: patients with disseminated cancer; test: Study in patients with disseminated cancer after anticancer therapy; assay type: in vivo, human; conditions: for Adhesion (%) / B-cells / B-cells (%) / Blastransformation, LPS / Blastransformation, PHA / Blastransformation, spontaneous / CD3 / CD3 (%) / CD4 / CD4 (%) / CD4/CD8 / CD8 / CD8 (%) / Cationic proteins / Chemiluminescence, luminol (induced) / Chemiluminescence, luminol (spontaneous) / IgA / IgG / IgM / Myeloperoxidase activity / NBT reduction test / NK activity (%) / NK-cells / NK-cells (%) / Stimulation index, LPS / Stimulation index, PHA: cancer patients
Description: as §1
The first group consisted of 34 patients with disseminated cancer (29 with colon cancer, 2 with primary brain gliomas, 2 with stage III gastric cancer, 1 with stage IIIb breast cancer). These patients received Bestim therapy after standard anticancer therapy which included surgical treatment and chemotherapy with 5-fluorouracil. It should be noted here that the goal of Bestim therapy in these patients was not to treat the tumor but to correct the immunodeficiency that accompanied this disease and which occurs as a consequence of anticancer therapy. Placebo (saline injections) were administered to 14 subjects.
as §2

[3] = tested on: viral hepatitis; test: Clinical trials in viral hepatitis; assay type: in vivo, human; conditions: trials in progress
[4] = tested on: mice; test: Pharmacological activity after oral administration to mice; assay type: in vivo; conditions: for .THETA.-antigen expression % of cells: bone marrow after 30 days; for IL-2 production: splenocytes after 30 days
Description: Bestim dissolved in saline was given orally, for 5 days, to groups of 5 mice per dose. After 30 days, the quantity of .THETA.-antigen positive cells in bone marrow and IL-2 production by splenocytes were measured (as described in later in methods).

[5] = tested on: patient after surgical removal of thymus gland; test: Case History 3: immunodeficiency caused by surgical removal of the thymus (Patient C); assay type: in vivo, human
Description: Patient C was in the clinic for immunodeficiency caused by surgical removal of the thymus gland. Bestim was administered in the standard 5 daily intramuscular dose of 0.1 mg.

[6] = Bestim combined with conventional methods

N[C@@H](CCC(=O)N[C@@H](Cc1c[nH]c2ccccc12)C(=O)O)C(=O)O [Bestim, γ-L-glutamyl-L-tryptophan]
clinical improvement [1, 6]: more rapid clinical improvement
duration of the patient's stay in the clinic [1, 6]: decreased the duration of the patient's stay in the clinic
Adhesion (%) ([1]; Bestim After): 41 ± 3%
Blast transformation PHA ([1]; Bestim After): 8935 ± 780
Blast transformation spont ([1]; Bestim After): 541 ± 48
CD3 (%) ([1]; Bestim After): 65 ± 5%
CD4 (%) ([1]; Bestim After): 40 ± 3%
CD4/CD8 ([1]; Bestim After): 1.92 ± 0.17
CD8 (%) ([1]; Bestim After): 22 ± 2%
CD16 (%) ([1]; Bestim After): 10.7 ± 2.1%
CD72 (%) ([1]; Bestim After): 4.0 ± 0.5%
Chemilumin luminol (induced) ([1]; Bestim After): 5063 ± 431
Chemilumin luminol (spontaneous) ([1]; Bestim After): 1427 ± 252
IL-1 production LPS induced ([1]; Bestim After): 1601 ± 284
IL-1 production spontaneous ([1]; Bestim After): 588 ± 201
IgA ([1]; Bestim After): 2.2 ± 0.1 g/L
IgG ([1]; Bestim After): 9.7 ± 0.9 g/L
IgM ([1]; Bestim After): 1.2 ± 0.1 g/L
NBT test induced ([1]; Bestim After): 144 ± 17
NBT test spontaneous ([1]; Bestim After): 77 ± 11
TNF production spontaneous ([1]; Bestim After): 286 ± 27
TNF prpoduction LPS induced ([1]; Bestim After): 338 ± 81
Adhesion (%) ([1]; Bestim Before): 32 ± 3%
Blast transformation PHA ([1]; Bestim Before): 4563 ± 524
Blast transformation spont ([1]; Bestim Before): 435 ± 53
CD3 (%) ([1]; Bestim Before): 35 ± 5%
CD4 (%) ([1]; Bestim Before): 25 ± 4%
CD4/CD8 ([1]; Bestim Before): 2.09 ± 0.30
CD8 (%) ([1]; Bestim Before): 15 ± 2%
CD16 (%) ([1]; Bestim Before): 6.2 ± 1.1%
CD72 (%) ([1]; Bestim Before): 4.1 ± 0.6%
Chemilumin luminol (induced) ([1]; Bestim Before): 2943 ± 307
Chemilumin luminol (spontaneous) ([1]; Bestim Before): 1008 ± 90
IL-1 production LPS induced ([1]; Bestim Before): 1014 ± 157
IL-1 production spontaneous ([1]; Bestim Before): 481 ± 166
IgA ([1]; Bestim Before): 2.4 ± 0.4 g/L
IgG ([1]; Bestim Before): 10.6 ± 1.5 g/L
IgM ([1]; Bestim Before): 1.2 ± 0.2 g/L
NBT test induced ([1]; Bestim Before): 111 ± 15
NBT test spontaneous ([1]; Bestim Before): 79 ± 12
TNF production spontaneous ([1]; Bestim Before): 134 ± 55
TNF prpoduction LPS induced ([1]; Bestim Before): 370 ± 64
Alanine aminotransferase ([1]; Bestim After): 18 ± 3 IU/L
Albumin ([1]; Bestim After): 40 ± 2 g/L
Asparagine aminotransferase ([1]; Bestim After): 17 ± 3 IU/L
Band neutrophils (%) ([1]; Bestim After): 7 ± 1.6%
Bilirubin ([1]; Bestim After): 7 ± 1 μM/L
Creatinin ([1]; Bestim After): 98 ± 4 μM/L
Hemoglobin ([1]; Bestim After): 101 ± 4 g/L
Mature neutrophils (%) ([1]; Bestim After): 70 ± 1%
Monocytes (%) ([1]; Bestim After): 3.6 ± 0.7%
Plasma protein ([1]; Bestim After): 73 ± 3 g/L
Urea ([1]; Bestim After): 4.0 ± 0.4 mM/L
Alanine aminotransferase ([1]; Bestim Before): 29 ± 7 IU/L
Albumin ([1]; Bestim Before): 38 ± 2 g/L
Asparagine aminotransferase ([1]; Bestim Before): 30 ± 9 IU/L
Band neutrophils (%) ([1]; Bestim Before): 12 ± 2%
Bilirubin ([1]; Bestim Before): 10 ± 1 μM/L
Creatinin ([1]; Bestim Before): 117 ± 7 μM/L
Hemoglobin ([1]; Bestim Before): 98 ± 4 g/L
Mature neutrophils (%) ([1]; Bestim Before): 76 ± 2%
Monocytes (%) ([1]; Bestim Before): 3.2 ± 0.5%
Plasma protein ([1]; Bestim Before): 70 ± 3 g/L
Urea ([1]; Bestim Before): 5.5 ± 0.3 mM/L
patients who subjectively felt better and were improved in the physician's opinion ([2]; 30 out of 34 cancer patients, 0.1 mg i.m. per day for 5 days): 88%
patients with negative changes in immunological parameters ([2]; cancer patients N = 34): 9%
patients with no significant change in immunological parameters ([2]; cancer patients N = 34): 18%
patients with positive changes in immunological parameters ([2]; cancer patients N = 34): 73%
Adhesion (%) ([2]; Bestim After): 47.6 ± 5.7%
B-cells ([2]; Bestim After): 240 ± 90 10^6 cells/L
B-cells (%) ([2]; Bestim After): 7.1 ± 2.2%
Blastransformation, LPS ([2]; Bestim After): 2738 ± 305
Blastransformation, PHA ([2]; Bestim After): 21661 ± 5674
Blastransformation, spontaneous ([2]; Bestim After): 434 ± 73
CD3 ([2]; Bestim After): 1940 ± 234 10^6 cells/L
CD3 (%) ([2]; Bestim After): 70 ± 4%
CD4 ([2]; Bestim After): 923 ± 114 10^6 cells/L
CD4 (%) ([2]; Bestim After): 35 ± 2%
CD4/CD8 ([2]; Bestim After): 1.16 ± 0.09
CD8 ([2]; Bestim After): 757 ± 75 10^6 cells/L
CD8 (%) ([2]; Bestim After): 29 ± 2%
Cationic proteins ([2]; Bestim After): 52.4 ± 3.3 Units
Chemiluminescence, luminol (induced) ([2]; Bestim After): 5294 ± 789
Chemiluminescence, luminol (spontaneous) ([2]; Bestim After): 827 ± 299
IgA ([2]; Bestim After): 4.1 ± 0.7 g/L
IgG ([2]; Bestim After): 14.4 ± 1.0 g/L
IgM ([2]; Bestim After): 2.2 ± 0.4 g/L
Myeloperoxidase activity ([2]; Bestim After): 479 ± 97 Units
NBT reduction test ([2]; Bestim After): 160 ± 21 Units
NK activity (%) ([2]; Bestim After): 28 ± 1.5%
NK-cells ([2]; Bestim After): 267 ± 32 10^6 cells/L
NK-cells (%) ([2]; Bestim After): 12.0 ± 1.7%
Stimulation index, LPS ([2]; Bestim After): 7.4 ± 0.7
Stimulation index, PHA ([2]; Bestim After): 48.9 ± 10.3
Adhesion (%) ([2]; Bestim Before): 49.6 ± 5.9%
B-cells ([2]; Bestim Before): 152 ± 58 10^6 cells/L
B-cells (%) ([2]; Bestim Before): 5.0 ± 1.3%
Blastransformation, LPS ([2]; Bestim Before): 2328 ± 438
Blastransformation, PHA ([2]; Bestim Before): 5998 ± 1745
Blastransformation, spontaneous ([2]; Bestim Before): 373 ± 63
CD3 ([2]; Bestim Before): 1430 ± 183 10^6 cells/L
CD3 (%) ([2]; Bestim Before): 65 ± 4%
CD4 ([2]; Bestim Before): 582 ± 54 10^6 cells/L
CD4 (%) ([2]; Bestim Before): 28 ± 2%
CD4/CD8 ([2]; Bestim Before): 1.04 ± 0.08
CD8 ([2]; Bestim Before): 572 ± 53 10^6 cells/L
CD8 (%) ([2]; Bestim Before): 25 ± 2%
Cationic proteins ([2]; Bestim Before): 49.9 ± 5.9 Units
Chemiluminescence, luminol (induced) ([2]; Bestim Before): 6991 ± 2101
Chemiluminescence, luminol (spontaneous) ([2]; Bestim Before): 475 ± 141
IgA ([2]; Bestim Before): 4.5 ± 0.8 g/L
IgG ([2]; Bestim Before): 14.2 ± 1.0 g/L
IgM ([2]; Bestim Before): 1.9 ± 0.4 g/L
Myeloperoxidase activity ([2]; Bestim Before): 467 ± 87 Units
NBT reduction test ([2]; Bestim Before): 157 ± 19 Units
NK activity (%) ([2]; Bestim Before): 29 ± 1.3%
NK-cells ([2]; Bestim Before): 256 ± 44 10^6 cells/L
NK-cells (%) ([2]; Bestim Before): 13.4 ± 2.3%
Stimulation index, LPS ([2]; Bestim Before): 7.6 ± 0.6
Stimulation index, PHA ([2]; Bestim Before): 15.9 ± 4.5
signs and symptoms of viral hepatitis [3]: ameliorates the signs and symptoms of viral hepatitis
activity after oral administration ([4]; animal studies, summary): active after oral administration
.THETA.-antigen expression % of cells ([4]; oral 0.1 μg/kg/day for 5 days): 48 ± 1.9 % of cells
IL-2 production ([4]; oral 0.1 μg/kg/day for 5 days): 43 ± 11.5 Units/ml
.THETA.-antigen expression % of cells ([4]; oral 1 μg/kg/day for 5 days): 48 ± 3.0 % of cells
IL-2 production ([4]; oral 1 μg/kg/day for 5 days): 73 ± 16.3 Units/ml
.THETA.-antigen expression % of cells ([4]; oral 10 μg/kg/day for 5 days): 36 ± 2.3 % of cells
IL-2 production ([4]; oral 10 μg/kg/day for 5 days): 130 ± 11.8 Units/ml
T-Lymphocytes (CD3) ([5]; After Bestim Therapy): 49%
Lymphocytes ([5]; After Bestim Therapy (5 daily i.m. 0.1 mg)): 1980 per mm^3
Lymphocytes ([5]; Before Therapy): 1100 per mm^3
T-Lymphocytes (CD3) ([5]; Before Therapy): 10%
